Read-outs that look alike come from different tables or passages of the source.
Assays:
[1] = tested on: CGR8-2Luc ESCs; conditions: undifferentiated ESCs, 48 h exposure, PI assay (cytotoxicity)
Method in brief: (§1)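 Mouse CGR8-2Luc ESCs in LIF-containing medium were exposed to compounds for 48 h; ESC-derived neurons (MS5 co-culture, replated day 5 in N2/bFGF medium) were exposed from day 6 to day 8. Read-outs: Tα1-FLuc, EF1α-RLuc and PI DNA content as % of control. LOAEL = lowest concentration giving a significant decrease versus baseline.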

[2] = tested on: ESC-derived neurons; conditions: ESC-derived neurons, 48 h exposure, PI assay (cytotoxicity)
Method in brief: as §1

[3] = tested on: Tubulin α1 (Tα1) promoter; test: cells; conditions: for LOAEL Neurons Tα1: ESC-derived neurons, 48 h exposure
Method in brief: (§2)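 Mouse CGR8 ESCs carrying Tα1-firefly and EF1α-Renilla luciferase reporters, treated either undifferentiated (48 h exposure after 24 h plating) or as MS5-induced neurons (exposure day 6 to day 8). Dual-luciferase luminescence expressed as % promoter activity versus DMSO control wells; 5 µM methylmercury as positive control.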

[4] = tested on: EF1α promoter; conditions: for LOAEL ESC EF1α: undifferentiated ESCs
Method in brief: as §2

[5] = tested on: Tubulin α1 (Tα1) promoter; conditions: for LOAEL ESC Tα1: undifferentiated ESCs, 48 h exposure, lowest tested concentration with statistically significant decrease
Method in brief: as §2

[6] = tested on: undifferentiated pluripotent stem cells (ESCs); test: Dual luminescence reporter test system, undifferentiated ESCs (readout not separated); assay type: cell-based, mouse; conditions: in vitro toxicity data expressed as EC20
Excerpt: Fig. 1 Synopsis of experimental protocols. The impact of compounds on neural promoter activity (FLuc, Firefly Luciferase under the control of the Tα1 promoter), general promoter activity (RLuc, Renilla Luciferase under the control of the EF1α promoter), and amount of DNA (PI, propidium iodide fluorescence in cell homogenates) was investigated in undifferentiated mouse embryonic pluripotent stem cells (ESCs) and on ESC-derived neurons. Arrows indicate the time of measurement of the three parameters. a Protocol for testing compounds effects on ESCs. CGR8-2Luc cells were plated on gelatin-coated 96-well plates in maintenance medium (BHK21 medium containing 10 % FCS, L-glutamine, NEAA, P/S, and LIF). Twenty-four hours later, cells were exposed to compounds for forty-eight hours. b Protocol for testing compounds on ESC-derived neurons. CGR8-2Luc cells were co-cultured with MS5 cells to induce neural differentiation in DMEM medium containing 15 % KO-serum, NEAA, β-mercaptoethanol, and P/S. On day 5, cells were detached and seeded on polyornithine-coated plates in DMEM medium containing N2 supplement, bFGF, and P/S; compound exposure was from day 6 to day 8
To test compounds on ESC-derived neurons, neuronal differentiation was carried out as previously described (Suter et al. [2009]; Xu et al. [2014]). Briefly, CGR8-2Luc cells were seeded on irradiated bone marrow-derived stromal MS5 cells and cultivated for 4 days in DMEM medium containing 15 % Knock-out™ Serum Replacement, non-essential amino acids, beta-mercaptoethanol, and penicillin/streptomycin. At day 5, cells were then re-plated (3 × 10^5 cells/cm^2) on polyornithine-coated 96-well plates in N2 medium containing DMEM, N2 supplement, penicillin/streptomycin, and 10 ng/ml basic human fibroblast growth factor (bFGF) (Invitrogen). […] To assess toxicity of compounds on undifferentiated pluripotent stem cells (ESCs), CGR8-2Luc cells were plated at 45,000 cells/cm^2 on 0.1 % gelatin-coated dishes in BHK21 medium, supplemented with 10 % fetal calf serum, L-glutamine, non-essential amino acids, penicillin/streptomycin, and leukemia inhibitory factor (LIF). After 24 h, compounds were added and incubated for 48 h, before luciferase expression and PI fluorescence were analyzed. In all experiments, methylmercury was used as a positive control at a concentration of 5 µM.
Luciferase activities were measured with a Dual-Luciferase™ Reporter system kit. CGR8-2Luc ES cells were lysed in 96-well plates according to the manufacturer’s instructions. Luminescence measurements were performed on a Fluostar Optima reader. Luminescence counts were expressed as percentage of promoter activity normalized by comparison with the control wells treated by DMSO. […] parameters were measured in homogenates of ESCs and in ESC-derived neurons: (1) FLuc, reflecting the activity of early neural promoter Tα1. FLuc increases during neuronal differentiation. Many neurotoxic compounds may affect FLuc expression, either through impact on neuronal differentiation, through changes of neuronal gene expression, or through killing of neurons.
After measurement of luciferase activity, DNA quantity was determined by PI assay, as previously described (Xu et al. [2014]). PI was added to cell homogenates after the luciferase test, at a final concentration of 50 µg/ml and incubated for 2 h. After incubation, fluorescence intensity was measured on a Flexstation 3 microplate reader (Excitation: 544 nm ± 15 nm; Emission: 620 nm ± 15 nm). Results are expressed as percentage of control. Propidium iodide (PI) measures total DNA content as an approximation of the cell number.

[7] = tested on: plasma protein; conditions: cited from earlier work; for fb,pl (plasma bound fraction): extracted from the literature (geldanamycin value assumed)

SMILES: COC1=C2C[C@@H](C)C[C@H](OC)[C@H](O)[C@@H](C)/C=C(\C)[C@H](OC(N)=O)[C@@H](OC)/C=C\C=C(/C)C(=O)NC(=CC1=O)C2=O [Geldanamycin]
- LOAEL ESC DNA [1]: 0.05 µM
- LOAEL Neurons DNA [2]: 0.05 µM
- LOAEL Neurons Tα1 [3]: 0.05 µM
- LOAEL Neurons EF1α ([4]; ESC-derived neurons, 48 h exposure): 0.05 µM
- LOAEL ESC EF1α ([4]; 48 h exposure): 0.5 µM
- LOAEL ESC Tα1 [5]: 0.005 µM
- In vitro EC20 in ESC [6]: 10 nM
- fb,pl (plasma bound fraction) [7]: 0.990

SMILES: C/C(O)=C(\C#N)C(=O)Nc1ccc(C(F)(F)F)cc1 [Teriflunomide]
- LOAEL ESC DNA [1]: >50 µM
- LOAEL Neurons DNA [2]: >50 µM
- effect on neural promoter activity in neurons [3]: increase
- LOAEL Neurons Tα1 [3]: 50 µM
- LOAEL Neurons EF1α ([4]; mouse, 48 h): >50 µM
- LOAEL ESC EF1α ([4]; 48 h exposure): >50 µM
- effect on neural promoter activity in ESCs [5]: increase
- LOAEL ESC Tα1 [5]: >50 µM
- In vitro EC20 in ESC [6]: 4000 to 40000 nM
- fb,pl (plasma bound fraction) [7]: 0.995
- average bound fraction in plasma ([7]; ref Russo et al. [2013]): 99.46%
